Laboratory results as given in the supplement of paper PMC10307832.

These cell lines were tested with CCCS(=O)(=O)Nc1ccc(F)c(C(=O)c2c[nH]c3ncc(-c4ccc(Cl)cc4)cc23)c1F [Vemurafenib] (assay: relative viability (nuclei count vs DMSO), 5 days (fraction); higher = more cells survive). Settings: 0.03162 µM.
How it was run: (§1)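 In 1536-well plates, lung cancer cell lines rested overnight at 37 °C before five library-drug doses (not always all listed), √10 apart, were pinned onto vehicle-anchored plates. Nuclei were counted with MetaXpress from 4× Hoechst images taken after 5 days without medium change. Viability compares treated-well with vehicle-well nuclei as a median over plates, and plates needed control CV below 25% plus at least one doubling to pass.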

Compared with NCI-H2126, EPLC-272H is lower in relative viability: 0.925 for the first, 0.889 for the second.

Going from NCI-H1755 to NCI-H2023, the relative viability falls from 0.958 to 0.915.

Compared with NCI-H1623, NCI-H1650 is lower in relative viability: 0.977 for the first, 0.774 for the second.

First: NCI-H1793
Second: NCI-H2342
The relative viability of the first is lower: 0.836 for the first, 0.938 for the second.

Going from H3255 to NCI-H1975, the relative viability rises from 0.918 to 0.922.

Going from PC-14 to NCI-H1299, the relative viability rises from 0.94 to 1.01.

Going from NCI-H1437 to HOP-62, the relative viability rises from 0.904 to 0.961.

Compared with HCC-44, BEN is higher in relative viability: 0.899 for the first, 0.923 for the second.

Compared with LOU-NH91, NCI-H661 is higher in relative viability: 0.954 for the first, 0.975 for the second.

Going from NCI-H1651 to PC-3 [JPC-3], the relative viability rises from 0.919 to 0.972.

First: SW 1573
Second: LK-2
The relative viability of the first is lower: 0.916 for the first, 0.944 for the second.

First: NCI-H2405
Second: NCI-H1703
The relative viability of the first is lower: 0.945 for the first, 1.02 for the second.

First: NCI-H1648
Second: NCI-H1993
The relative viability of the first is lower: 0.819 for the first, 0.844 for the second.

Compared with ChaGo-K-1, NCI-H1355 is lower in relative viability: 0.958 for the first, 0.933 for the second.

First: HCC-366
Second: ABC-1
The relative viability of the first is higher: 1.01 for the first, 0.808 for the second.

Compared with Calu-6, NCI-H1563 is higher in relative viability: 0.932 for the first, 0.989 for the second.

Compared with EBC-1, A549 is lower in relative viability: 0.943 for the first, 0.939 for the second.

First: IA-LM
Second: NCI-H596
The relative viability of the first is lower: 0.837 for the first, 0.842 for the second.

Same assay, conditions: 0.1 µM

First: NCI-H2126
Second: EPLC-272H
The relative viability of the first is lower: 0.845 for the first, 0.854 for the second.

Compared with NCI-H1755, NCI-H2023 is lower in relative viability: 0.969 for the first, 0.863 for the second.

First: NCI-H1650
Second: NCI-H2342
The relative viability of the first is lower: 0.701 for the first, 0.94 for the second.

Compared with NCI-H1975, NCI-H1299 is higher in relative viability: 0.9 for the first, 0.98 for the second.

Compared with NCI-H1437, HOP-62 is higher in relative viability: 0.958 for the first, 1.05 for the second.

Going from HCC-44 to BEN, the relative viability rises from 0.955 to 0.987.

Going from LOU-NH91 to NCI-H661, the relative viability rises from 0.724 to 0.929.

Compared with NCI-H1651, SW 1573 is lower in relative viability: 0.998 for the first, 0.927 for the second.

Going from LK-2 to NCI-H2405, the relative viability rises from 0.937 to 0.955.

Going from NCI-H1703 to NCI-H1648, the relative viability falls from 0.864 to 0.717.

Going from ChaGo-K-1 to NCI-H1355, the relative viability falls from 1.02 to 0.908.

Going from HCC-366 to ABC-1, the relative viability falls from 0.969 to 0.886.

Going from Calu-6 to NCI-H1563, the relative viability falls from 0.956 to 0.905.

Going from EBC-1 to A549, the relative viability rises from 0.929 to 0.942.

First: IA-LM
Second: NCI-H596
The relative viability of the first is lower: 0.888 for the first, 0.914 for the second.

Same assay, conditions: 0.3162 µM

Going from NCI-H2126 to EPLC-272H, the relative viability rises from 0.966 to 1.01.

First: NCI-H1755
Second: NCI-H2023
The relative viability of the first is lower: 0.823 for the first, 0.908 for the second.

Compared with NCI-H1623, NCI-H1650 is lower in relative viability: 1.23 for the first, 0.924 for the second.

First: NCI-H1793
Second: NCI-H2342
The relative viability of the first is lower: 0.775 for the first, 0.86 for the second.

Compared with H3255, NCI-H1975 is lower in relative viability: 1.01 for the first, 0.696 for the second.

Compared with PC-14, NCI-H1299 is higher in relative viability: 0.864 for the first, 0.895 for the second.

First: NCI-H1437
Second: HOP-62
The relative viability of the first is higher: 0.974 for the first, 0.858 for the second.

Compared with HCC-44, BEN is lower in relative viability: 0.758 for the first, 0.569 for the second.

Going from NCI-H661 to NCI-H1651, the relative viability falls from 1.02 to 0.887.

Compared with PC-3 [JPC-3], SW 1573 is lower in relative viability: 0.971 for the first, 0.957 for the second.

Compared with LK-2, NCI-H1703 is lower in relative viability: 1.05 for the first, 0.795 for the second.

First: NCI-H1648
Second: NCI-H1993
The relative viability of the first is higher: 1.4 for the first, 0.993 for the second.

Compared with ChaGo-K-1, NCI-H1355 is higher in relative viability: 0.863 for the first, 0.925 for the second.

Going from ABC-1 to Calu-6, the relative viability rises from 0.711 to 0.849.

First: NCI-H1563
Second: EBC-1
The relative viability of the first is lower: 0.967 for the first, 0.986 for the second.

Compared with A549, IA-LM is lower in relative viability: 0.945 for the first, 0.86 for the second.

Work on NCI-H596 yielded a relative viability of 0.83.

Same assay, conditions: 1 µM

Going from NCI-H2126 to EPLC-272H, the relative viability falls from 0.988 to 0.903.

NCI-H1755 and NCI-H2023 are the same in relative viability: 0.957 for the first, 0.957 for the second.

Compared with NCI-H1623, NCI-H1650 is higher in relative viability: 0.99 for the first, 1.01 for the second.

First: NCI-H1793
Second: NCI-H2342
The relative viability of the first is lower: 0.867 for the first, 0.992 for the second.

First: H3255
Second: NCI-H1975
The relative viability of the first is higher: 0.917 for the first, 0.886 for the second.

Compared with PC-14, NCI-H1299 is lower in relative viability: 1.01 for the first, 0.991 for the second.

First: NCI-H1437
Second: HOP-62
The relative viability of the first is higher: 1.05 for the first, 0.875 for the second.

Compared with HCC-44, BEN is lower in relative viability: 1.07 for the first, 0.8 for the second.

First: LOU-NH91
Second: NCI-H661
The relative viability of the first is higher: 1.07 for the first, 0.971 for the second.

First: NCI-H1651
Second: PC-3 [JPC-3]
The relative viability of the first is lower: 0.966 for the first, 1.18 for the second.

First: SW 1573
Second: LK-2
The relative viability of the first is higher: 0.941 for the first, 0.66 for the second.

First: NCI-H2405
Second: NCI-H1703
The relative viability of the first is lower: 0.98 for the first, 0.986 for the second.

First: NCI-H1648
Second: NCI-H1993
The relative viability of the first is lower: 0.833 for the first, 0.974 for the second.

Compared with ChaGo-K-1, NCI-H1355 is lower in relative viability: 1.01 for the first, 0.96 for the second.

First: HCC-366
Second: ABC-1
The relative viability of the first is higher: 1.09 for the first, 0.945 for the second.

First: Calu-6
Second: NCI-H1563
The relative viability of the first is lower: 0.974 for the first, 0.988 for the second.

First: EBC-1
Second: A549
The relative viability of the first is higher: 1.03 for the first, 0.963 for the second.

Going from IA-LM to NCI-H596, the relative viability falls from 0.851 to 0.828.

The cell lines below were run with COc1cccc2cc(-c3nc([C@H]4CC[C@H](C(=O)O)CC4)n4ncnc(N)c34)[nH]c12 [OSI-027] in the same assay as above. Settings: 0.01 µM.
How it was run: as §1

First: NCI-H2126
Second: EPLC-272H
The relative viability of the first is higher: 0.977 for the first, 0.972 for the second.

Going from NCI-H1755 to NCI-H2023, the relative viability falls from 0.983 to 0.952.

Going from NCI-H1623 to NCI-H1650, the relative viability falls from 1.1 to 0.937.

Compared with NCI-H1793, NCI-H2342 is higher in relative viability: 0.902 for the first, 0.975 for the second.

Compared with H3255, NCI-H1975 is lower in relative viability: 0.98 for the first, 0.977 for the second.

PC-14 and NCI-H1299 are the same in relative viability: 1 for the first, 1 for the second.

NCI-H1437 and HOP-62 are the same in relative viability: 1 for the first, 1 for the second.

First: HCC-44
Second: BEN
The relative viability of the first is higher: 0.975 for the first, 0.882 for the second.

Going from LOU-NH91 to NCI-H661, the relative viability rises from 0.903 to 0.977.
